# Paper PMC12366525, “Characterization of allosteric modulators that disrupt androgen receptor co-activator protein-protein interactions to alter transactivation–Drug leads for metastatic castration resistant prostate cancer” (SLAS discovery : advancing life sciences R & D, 2023)
# pIC50: −log10 of the molar value. Where two headings read alike, the source gives them in different places.
# Tests used:
# C4–2 cells = assay: Prostate cancer cell line growth inhibition assay, C4–2; type: cell-based; settings: read-out: C4–2 GI50 (AR +)
# Method: The PC-3, DU-145, LNCaP, C4–2, and 22Rv1 PC cell line growth inhibition assays have been described previously. On day 1, each PC cell line was harvested, counted, and seeded into two 384-well assay plates, a time zero (T0) and a time 72 h (T72) plate. PC cell lines were all seeded at 1000 cells per well in 45 μL of tissue culture media in uncoated white clear bottom 384-well assay plates (VWR, # 82050–076) using a Matrix electronic multichannel pipette (Thermo Fisher Scientific, Waltham, MA) and cultured overnight at 37 °C, 5% CO2, and 95% humidity. On day 2, 25 μL of the Cell Titer Glo (CTG) (Promega Corporation, Madison, WI) detection reagent was dispensed into the wells of the T0 assay plate using a Matrix electronic multichannel pipette, and the RLUs were captured on the SpectraMax M5e (Molecular Devices LLC, Sunnyvale, CA) microtiter plate reader. Also on day 2, 5 μL of compounds were transferred into the test wells of the T72 384-well assay plates which were returned to the incubator for 72 h. Control wells received DMSO alone. On day 5, 25 μL of the CTG detection reagent was dispensed into the wells of the T72 assay plate using a Matrix electronic multichannel pipette, and the RLU’s were captured on the SpectraMax M5e microtiter plate reader platform.
# (§1) In 384-well assays, DMSO minimum (n = 32) and maximum (n = 32) plate control wells were utilized to calculate signal-to-background ratios (S:B) and Z’-factor coefficient assay performance quality control statistics, and to normalize the signals of compound treated wells and to represent 0% and 100% respectively. For the 96-well AR-LBD H^3-DHT radioligand binding assay, eight minimum and maximum plate control wells were utilized to normalize the data. For the PC cell line growth inhibition assays we used the DMSO control data from the T0 and T72 assay plates to assess the dynamic range of the T0 to T72 cell growth, and to calculate S:B ratios and Z’-factor coefficient statistics for the assay signal window (T0 to T72). To normalize the 72 h compound exposure PC growth inhibition data, the signals from the compound treated wells were processed and expressed as% of the T72 DMSO plate controls. IC50 and GI50 values for each of the bioassays were calculated using Graph-Pad Prism 9 software to plot and fit data to curves using the Sigmoidal dose response variable slope equation Y = Bottom + [Top-Bottom]/ [1 + 10^^(LogEC50-X)*HillSlope].
# AR-TIF2 PPI = biological target: T1, AR-TIF2 PPI (Homo sapiens, UniProt P10275); assay: AR-TIF2 PPI biosensor (PPIB) HCS assay, inhibition of DHT-induced AR-TIF2 PPI formation; type: cell-based; settings: for pIC50: U-2 OS cells, compounds 3 h prior to 25 nM DHT for 90 min
# T1 construct: expressed in transfected cells; host or cells: U-2 OS osteosarcoma cells, co-infected with recombinant adenoviruses
# T1 sequence (P10275 663-920 limits assumed): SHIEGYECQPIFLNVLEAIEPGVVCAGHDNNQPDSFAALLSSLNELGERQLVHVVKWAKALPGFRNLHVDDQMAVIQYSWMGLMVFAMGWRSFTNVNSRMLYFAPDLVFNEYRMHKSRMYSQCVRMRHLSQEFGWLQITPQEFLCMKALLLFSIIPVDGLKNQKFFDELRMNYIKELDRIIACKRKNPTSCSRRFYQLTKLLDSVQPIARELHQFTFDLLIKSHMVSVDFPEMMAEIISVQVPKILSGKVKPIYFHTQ
# Method: Daughter plates containing 2 μL of the serially diluted compounds in DMSO were prepared and replicated from 384-well serial dilution master plates using a Janus MDT platform outfitted with a 384-well transfer head. Aluminum adhesive plate seals were applied, and plates were stored at −20 °C. For bioassay testing, daughter plates were withdrawn from −20 °C storage, thawed to ambient temperature, and centrifuged for 1 min at 100 × g, and plate seals were removed before 38 μL of serum-free media (SFM) was transferred into wells using a Matrix pipettor (ThermoFisher, Waltham, MA), to generate an intermediate stock concentration of validation compounds ranging from 0.977 to 500 μM (5.0% DMSO). Diluted compounds were mixed by repeated aspiration and dispensation using a 384-well P30 dispensing head on the Janus MDT platform and then, 5 μL of diluted compounds was transferred to assay plate wells to provide a final concentration range from 0.0977 to 50 μM (0.5% DMSO).
# The AR-TIF2 PPIB HCS assay was performed in U-2 OS osteosarcoma cells as described previously. Briefly, U-2 OS cells were coinfected with recombinant adenovirus biosensor expression constructs and seeded at 2500 cells per well in 384-well collagen-coated microplates (Greiner BioOne #781956) and plates were incubated overnight at 37°C in 5% CO2 and 95% humidity. […] After the appropriate time, assay plates were fixed by transfer of 50 μL of pre-warmed (37°C) 7.4% formaldehyde and 2 μg/mL Hoechst 33342 in PBS and incubation at room temperature for 30 min. Liquid was aspirated, plates were washed twice with 85 μL PBS, leaving the final wash in the plate. Plates were sealed with adhesive aluminum plate seals, and fluorescent images of three fields of view were acquired in the DAPI (Hoechst stained nuclei), FITC (TIF2-GFP) and Texas Red (AR-RFP) channels on an ImageXpress Micro (IXM) automated HCS platform (Molecular Devices LLC, Sunnyvale, CA) using a 10X Plan Fluor 0.3 NA objective. Images were analyzed using the Translocation Enhanced (TE) image analysis module of the MetaXpress software as described previously.
# as §1
Compound,"GI50 (C4–2 cells; C4-2, 72 h)",pIC50 (AR-TIF2 PPI),GI50 (C4–2 cells; 72 h),"Reduction in relative potency versus parent hit in AR-TIF2 PPIB assay formats (AR-TIF2 PPI; S1 analogs vs S1–1, S3–15 vs S3–14)"
Cc1ccccc1-c1cc(O)c2c(c1)CN(c1nc(C(N)=O)cs1)CCO2 [S1–1],31.7 µM,5.25,–,–
Cc1ccccc1-c1cc(O)c2c(c1)CN(c1nccs1)CCO2 [S1–3],–,4.52,45.5 µM,–
Cc1nsc(NC(=O)N2CCC(Sc3ccccc3C)CC2)n1 [S2–6],14.1 µM,5.97,–,–
Cc1c(-c2ccccc2F)[nH]c2ccc(CNC(=O)CCc3cn[nH]c3)cc12 [S3–11],7.93 µM,5.49,–,–
Cc1c(-c2ccccc2F)[nH]c2ccc(CNC(=O)CCc3cnccn3)cc12 [S3–12],1.92 µM,5.37,–,–

# The next lines start with the values.
"GI50 (C4–2 cells; C4-2, 72 h)",pIC50 (AR-TIF2 PPI),GI50 (C4–2 cells; 72 h),"Reduction in relative potency versus parent hit in AR-TIF2 PPIB assay formats (AR-TIF2 PPI; S1 analogs vs S1–1, S3–15 vs S3–14)",Compound
69.8 µM,5.15,–,–,CC(=O)NCCC(=O)NCc1ccc2[nH]c(-c3ccccc3F)c(C)c2c1 [S3–13]
33 µM,5.67,–,–,Cc1c(-c2ccccc2F)[nH]c2ccc(CNC(=O)c3ccc(CO)o3)cc12 [S3–14]
16.8 µM,5.29,–,~ 2 fold,Cc1c(-c2ccc(F)cc2)[nH]c2ccc(CNC(=O)c3ccc(CO)o3)cc12 [S3–15]
